Among the test systems are HS 578T breast; SNB-75 CNS; NCI-H23 lung; NCI/ADR-RES ovarian; MDA-N; ACHN renal; MCF7 breast; SN12C renal; COLO 205 colon; EKVX NSCLC; SK-MEL-2 melanoma; NCI-H226 lung; A549 NSCLC; IGROV1 ovarian; BT-549 breast; SR leukemia; SK-MEL-5 melanoma; HOP-62 NSCLC; U251 CNS; HL-60(TB) leukemia.
What all share (assay): NCI anticancer screen, dose series, 48 h

In PubChem BioAssay (NCI) one finds TGI data, which are given here for six compounds.

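Dose response: 5 concentrations. Exposure: 48 h. Format: 96-well plates. Endpoint: linear interpolation; highest concentration if not reached. TGI is the concentration that stops growth completely.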

In the case of `Cn1c(=O)c2c(no[n+]2[O-])n(C)c1=O`, the TGI was 64.9 µM with HS 578T breast; 99.2 µM in the test on SNB-75 CNS; 47.9 µM in the test on NCI-H23 lung; 46 µM in the test on NCI/ADR-RES ovarian; 50.7 µM in the test with MDA-N; above 100 µM in the test on ACHN renal. For the same compound, the TGI was above 100 µM in the test with MCF7 breast; above 100 µM with SN12C renal; 43.9 µM in the test with COLO 205 colon; 67.9 µM with EKVX NSCLC; above 100 µM in the test on SK-MEL-2 melanoma; 59.3 µM with NCI-H226 lung. For the same compound, the TGI is above 100 µM in the test with A549 NSCLC; 58.7 µM with IGROV1 ovarian; 51.9 µM in the test on BT-549 breast; above 100 µM in the test with SR leukemia; above 100 µM with SK-MEL-5 melanoma; 47.3 µM in the test with HOP-62 NSCLC. The TGI in the test on U251 CNS worked out at 49.4 µM.
Consider `CN(c1ccccc1)S(=O)(=O)c1ccccc1[N+](=O)[O-]`, for which the TGI in the test on HS 578T breast, in the test with SNB-75 CNS, in the test with NCI-H23 lung, with NCI/ADR-RES ovarian, in the test with MDA-N and in the test with ACHN renal was above 100 µM throughout. In addition, the TGI in the test on MCF7 breast, with SN12C renal, in the test with COLO 205 colon, in the test with EKVX NSCLC, in the test on SK-MEL-2 melanoma and with NCI-H226 lung was above 100 µM each time. In addition, the TGI in the test on HL-60(TB) leukemia, in the test with A549 NSCLC, with IGROV1 ovarian, with BT-549 breast, with SR leukemia and in the test with HOP-62 NSCLC was above 100 µM throughout. For the same compound, in the test with U251 CNS, the TGI was above 100 µM.
For the compound `CC1=NN(C(=O)CC(=O)Nc2ccccc2Cl)C(=O)C1N=Nc1ccc(C(=O)O)cc1` (configuration not stated), the TGI in the test with HS 578T breast, in the test with NCI-H23 lung, in the test on NCI/ADR-RES ovarian, in the test with MDA-N, in the test on ACHN renal and in the test with MCF7 breast was above 100 µM in each case. For the same compound, the TGI in the test on SN12C renal, in the test on COLO 205 colon, in the test on EKVX NSCLC, in the test with SK-MEL-2 melanoma, in the test on HL-60(TB) leukemia and in the test with A549 NSCLC was above 100 µM each time. The TGI in the test on IGROV1 ovarian, with BT-549 breast, in the test with SR leukemia, with SK-MEL-5 melanoma, with HOP-62 NSCLC and with U251 CNS was above 100 µM in each case.
Consider `Oc1c2cc(Br)cc1CCc1cc(Br)cc(c1O)CC2`, for which the TGI in the test with HS 578T breast is 73.4 µM; with SNB-75 CNS, 88.3 µM; in the test with NCI-H23 lung, above 100 µM; with NCI/ADR-RES ovarian it was 57.2 µM; in the test on MDA-N, above 100 µM; with ACHN renal, above 100 µM. Moreover, the TGI in the test on MCF7 breast is 46.2 µM; in the test with SN12C renal it was above 100 µM; with COLO 205 colon, 27.7 µM; with SK-MEL-2 melanoma it was 52.9 µM; in the test with NCI-H226 lung it was 59.5 µM; in the test with HL-60(TB) leukemia it was 51.6 µM. Also, the TGI in the test with A549 NSCLC was above 100 µM; in the test on IGROV1 ovarian it was above 100 µM; with BT-549 breast, 73.1 µM; with SR leukemia, above 100 µM; in the test on SK-MEL-5 melanoma, 33.3 µM; in the test on HOP-62 NSCLC, 65.7 µM. Also, in the test on U251 CNS, the TGI came to 65.8 µM.
Turning to `O=C(NC1CCC(=O)N1C(=O)OCc1ccccc1)OCc1ccccc1` (configuration not stated), the TGI with HS 578T breast, in the test with SNB-75 CNS, with NCI-H23 lung, with NCI/ADR-RES ovarian, with MDA-N and in the test on ACHN renal was above 100 µM each time. The TGI in the test on MCF7 breast, in the test with SN12C renal, in the test with COLO 205 colon, in the test with SK-MEL-2 melanoma, in the test on NCI-H226 lung and in the test on A549 NSCLC was above 100 µM throughout. Besides, the TGI in the test on IGROV1 ovarian, in the test on BT-549 breast, with SR leukemia, with SK-MEL-5 melanoma, in the test with HOP-62 NSCLC and in the test on U251 CNS was above 100 µM throughout.
Regarding `CC1=C2C(=O)OCC23C=COC3(C)O1` (configuration not stated), the TGI in the test with HS 578T breast was above 100 µM; with SNB-75 CNS, 77.3 µM; in the test with NCI-H23 lung, above 100 µM; in the test with NCI/ADR-RES ovarian, above 100 µM; with MDA-N it was above 100 µM; in the test on ACHN renal it was above 100 µM. Also, the TGI with MCF7 breast is above 100 µM; in the test on SN12C renal, above 100 µM; in the test with COLO 205 colon it was 47.7 µM; in the test on EKVX NSCLC it was above 100 µM; in the test with SK-MEL-2 melanoma it was above 100 µM; with NCI-H226 lung, 97.8 µM. Moreover, the TGI in the test with A549 NSCLC is above 100 µM; in the test on IGROV1 ovarian, above 100 µM; in the test with BT-549 breast, above 100 µM; in the test on SR leukemia it was above 100 µM; in the test with SK-MEL-5 melanoma, 35.6 µM; in the test with HOP-62 NSCLC it was above 100 µM. In addition, the TGI with U251 CNS is above 100 µM.
